These results are taken from patent US5321037A, “Isoxazole derivatives for use as cerebro-active drugs and central muscle relaxants” (Sankyo Company, Limited, priority 1986, dated 1994).

In series [1] the test system is decerebrate rigidity (cats). As to the kind of experiment: Suppression of decerebrate rigidity (cats). Type of series: in vivo, cat. An excerpt:
Adult cats each weight 3.0 to 4.5 kg were used. Under ether anesthesia, the trachea was cannulated and the common carotid arteries were ligated at both sides. The cat was decerebrated by suction at the precollicular level. Ether anesthesia was then immediately discontinued. A pair of needle electrodes was inserted into the neck muscle in order to pick up any EMG muscular discharges. The EMG discharge was amplified and recorded on a pen-writing recorder, along with an integration of the EMG discharge. Recording was started at least 2 hours after withdrawal of anesthesia. Blood pressure induced from the femoral artery, as well as body temperature and heart beat, were recorded and monitored throughout the experiment.
After stable EMG discharges were obtained, the test compounds suspended in 0.5% CMC solution were administered into the duodenum through a previously inserted cannula. The effect of the test compound was expressed as the ratio of the integrated EMG discharge after administration relative to the value before administration.

Series [2] deals with decerebrate rigidity in rats. The series is described as follows: Suppression of decerebrate rigidity in rats. The format is in vivo, rat.
The test system of series [3] is spinal reflex in cats. As to the kind of experiment: Effect on spinal reflex in cats. The format is in vivo, cat. On the procedure:
Adult cats weighing 3.0 to 4.5 kg each were used. After induction of anesthesia with ether, the animal was anesthetized by intravenous injection of 50 mg/kg of a-chloralose. After the trachea was cannulated, the animal was fixed on a stereotaxic apparatus, and the lumbosacral spinal cord was exposed by laminectomy from L3 to S1. The ventral roots of the right side were cut from L6 to S1 as distal as possible and the cut ends were ligated with cotton thread previously immersed in Ringer's solution. The exposed spinal cord was covered with warmed mineral oil and maintained at 37° C. The ventral root, either L7 or S1, was fixed on a pair of platinum wire electrodes. A pair of collar-type electrodes was implanted on the ipsilateral tibial nerve and the saphenous nerve, for stimulation. After completion of all these operations, the cat was immobilized with pancronium bromide (0.5 mg/kg, i.v.) and maintained by artificial respiration (40/minute). Recording was started at least 2 hours after withdrawal of ether anesthesia. A single square pulse (0.01 to 0.1 msecond pulse width, supramaximal intensity) was applied to the nerve at a frequency of 0.3 Hz from an electronic stimulator. […] In a similar manner to Experiment 2, the blood pressure, heart beat and body temperature of the animal were recorded and monitored. Compounds to be tested were also administered in a similar manner.

The test system of series [4] is decerebrate rigidity in rats. The series is described as follows: Suppression of decerebrate rigidity in rats. Type of series: in vivo, rat. An excerpt:
The suppression of decerebrate rigidity in laboratory animals, such as rats, is a well known model for control of human spasticity and/or rigidity.
In the test method, a rat was anesthetized with halothane and fixed on a stereotaxic apparatus (SR-5, Narishige). In accordance with the brain atlas by Pellegrino et al., [L. J. Pellegrino, A. S. Pellegrino & A. J. Cushman: A Stereotaxic Atlas of the Rat Brain, Plenum Press, New York and London (1967)], an electrode 0.7 mm in diameter, which was insulated except for 1 mm at the tip, was inserted bilaterally into the midbrain reticular formation (AP: 0, L: ±1.5, H: -3.0). A clip serving as the reference electrode was fixed on the temporal muscle. Through these electrodes, a high frequency electric current (100 KHz, 10 to 20 mA) was applied from a lesion generator (Glass Co., LM4A) for 2 to 3 minutes to cauterize electrically this brain region.
The rat was then immediately set free from the stereotaxic apparatus. A polyethylene cannula was inserted into the duodenum and fixed with an acrylic resin (Aron Alfa, Sankyo Co., Ltd.). After completion of these operations, halothane anesthesia was immediately discontinued.
After 1.5 hours, when the animal awoke from the anesthesia, the rat was fixed on an apparatus devised in our laboratory for a hind leg fixation. Both hind legs were fixed at the anterior part of the ankle joints. Both hindlimb paws were then pushed in 4 mm for 6 seconds in every minute. The resulting repulsive tension was drawn on a polygraph through a strain gauge.
The test compounds were suspended in a 0.5% w/v CMC (carboxymethyl cellulose) aqueous solution and were administered orally (p.o.) or intraperitoneally (i.p.).
The results are summarized in the following Table 7, where the compounds of the present invention are identified by the number of the foregoing Example in which each was prepared, Compound X is the known compound eperisone hydrochloride, and Compound Y is the known compound afloqualone.
The source holds these as a separate data set.

Series [5] concerns thiopental anesthesia. The series is described as follows: Potentiation of thiopental anesthesia (mice). The format is in vivo, mouse (ddY strain). The note with it: for Anesthesia time: thiopental 30 mg/kg after one hour. How it is done:
In the test method, male adult mice of ddY strain each weighing 20 to 30 g were used as divided groups each made up of 5 to 7 mice. Test compounds suspended in 0.5% CMC solution were orally administered. After one hour, thiopental (30 mg/kg) was injected into the tail vein, and the time required for the mouse to recover the righting reflex was measured.

Series [6] has as its system ischemia-induced neurological symptoms in SHR SP. As to the kind of experiment: Improvement in ischemia-induced neurological symptoms in Spontaneously Hypertensive Rats Stroke Prone (SHR SP) caused by ligation of the bilateral common carotid arteries. Type of series: in vivo, rat (SHR SP). How it is done:
The test animals employed were male adult SHR SPs (13 or 15 weeks old). They were used in groups each consisting of about 10 animals. Under halothane anesthesia, both common carotid arteries of each animal were ligated to prepare a brain ischemia model. The halothane anesthesia was stopped immediately after the ligation, and then the time taken to recover the righting reflex, the onset time of convulsions and the survival time were determined. The test solution was prepared in the same manner as described in Experiment 1 and was administered to the animal intraperitoneally 30 minutes before the ligation. A 0.5% CMC solution was administered to the control group in the same manner. The statistical analysis was carried out in a similar manner to that in Experiment 1. The statistical analysis of the survival rate was carried out by the X^2 test.

The subject of series [7] is survival time under hypoxic conditions. The series is described as follows: Effect on survival time under hypoxic conditions. Type of series: in vivo, mouse (ddY strain). The note with it: 4% oxygen, 96% nitrogen. An excerpt:
The test animals employed were male adult mice (5 weeks old and about 30 g body weight) of the ddY strain. The animals were employed in groups, each containing from 7 to 17 animals. Each animal was given intraperitoneally a test compound in suspension (as in the preceding Experiments). Thirty (30) minutes after this administration, 2 or 3 animals were placed in a 1.5 liter gas chamber made of acrylate resin, and a mixture of 4% by volume oxygen and 96% nitrogen was supplied at the rate of 10 liters/minute. The time of death of the animal was measured (determined by the cessation of respiration).

The subject of series [8] is ischemia-induced neurological symptoms in the Mongolian Gerbil. The series is described as follows: Improvement of ischemia-induced neurological symptoms in the Mongolian gerbil caused by ligation of the bilateral common carotid arteries for 30 minutes. Type of series: in vivo. The conditions noted are these: 100 mg/kg i.p. upon recommencement of blood flow. On the procedure: The test animals employed were male adult Mongolian gerbils (16-20 weeks old). These were used in groups each consisting of from 10 to 20 animals. The bilateral common carotid arteries were occluded for 30 minutes under anesthesia with pentobarbital (30 mg/kg, intraperitoneally) and halothane (it was introduced to a mixture of 95% oxygen and 5% carbon dioxide at a concentration of 1.5% by volume) and then the occlusion was released to allow the blood to flow. The animal was then placed in a supine position, and we measured (1) the time taken from recommencement of blood flow until convulsions occurred and (2) the survival time. Observations to determine the onset time of convulsions and the survival time were continued for 6 and 7 hours, respectively, after recommencement of blood flow. […] The compound to be tested was suspended in a 0.5% w/v carboxymethyl cellulose (CMC) aqueous solution and administered intraperitoneally upon recommencement of blood flow in the common carotid arteries. On the other hand, a 0.5% CMC solution containing no test compound was administered likewise to a control group. Statistical analysis was carried out using the Mann-Whitney U-test between the control group and the test group.

[9] abbreviates: 100 mg/kg, administered as in Experiment 2.
The mark [10] stands for this setting: 100 mg/kg, after administration.
The mark [11] stands for this setting: Rattus norvegicus, po, 30 mg/kg p.o., read-out: Maximum inhibition.
Setting [12] is: 30 mg/kg i.p. 30 minutes before ligation.
Setting [13] is: 100 mg/kg i.p. 30 minutes before ligation.

Molecules are shown by their SMILES. Where two headings read alike, the source gives them in different places.

In the case of `O=c1cc(-c2ccccc2)on1CC(O)CN1CCOCC1` (stereo not shown) [Compound 1a], the “Inhibition of decerebrate rigidity” value in series [1] (100 mg/kg intraduodenal, 5 minutes after administration) is reported as “About 30%”; in series [1] (100 mg/kg intraduodenal, 1 hour after administration) it was “about 65%”. In series [1] (100 mg/kg intraduodenal, throughout the observation period), the “Duration of inhibitory effects” value was at least 2 h. The “Side effects and duration of action compared with eperisone hydrochloride” value in series [1] (compared with eperisone hydrochloride) was “weaker in side effects and of longer action than eperisone hydrochloride”. Besides, the “Duration of the effect” value in series [2] (10 mg/kg i.d.) was over 90 min; in series [4] (30 mg/kg i.d.), over 180 min; in series [4] (30 mg/kg i.p.), over 120 min; in series [4] (30 mg/kg p.o.), over 160 min. Further, the inhibition in vivo at 30 mg/kg in series [2] (Rattus norvegicus, intraduodenal, 30 mg/kg i.d., read-out: Maximum inhibition) was 60%; in series [4] (Rattus norvegicus, ip, 30 mg/kg i.p., read-out: Maximum inhibition), 60%; in series [4] (setting [11]), 95%. The “Duration of the effect on spinal reflexes” value in series [3] (100 mg/kg) is reported as “about 2 hours”. Further, in series [3] (setting [9]), the Monosynaptic reflex result was “little affected”. Moreover, the Polysynaptic reflex result in series [3] (setting [9]) is “remarkably inhibited”. The Spino-bulbo-spinal reflex result in series [3] (setting [9]) was “remarkably inhibited”. For the same molecule, the “Onset of the effect on spinal reflexes” value in series [3] (setting [10]) was found to be 5 min. Moreover, in series [3] (setting [10]), the “Time of maximum effect on spinal reflexes” value turned out to be 30 min. Also, the “Mechanism shown by spinal reflexes” value in series [3] (in vivo) is “interneuron blockers”. Besides, the “Onset of the effect” value in series [4] (10 mg/kg i.d.) amounted to 10 min; in series [4] (30 mg/kg i.d.) it was 5 min; in series [4] (30 mg/kg i.p.), 5 min; in series [4] (30 mg/kg p.o.), 10 min. The inhibition in vivo at 10 mg/kg in series [4] (Rattus norvegicus, intraduodenal, 10 mg/kg i.d., read-out: Maximum inhibition) was determined as 20%. The figures for the Anesthesia time in series [5] (50 mg/kg p.o.) and in series [5] (100 mg/kg p.o.) were 288.5 ± 20.1 s and 237.3 ± 25.5 s, respectively. For the same molecule, the “Drowsiness (the adverse effect), implied” value in series [5] (compared with afloqualone) is reported as “induce drowsiness (the adverse effect) less than afloqualone”. For the same molecule, the “Prolongation of the duration of thiopental-induced anesthesia, in words” value in series [5] (in comparison with eperisone hydrochloride) is reported as “did not significantly prolong the duration of thiopental-induced anesthesia”.
Take `NC(=O)OCC(O)COc1noc2ccc(Cl)cc12` (stereo not shown) [Example 3, 3-(3-Carbamoyloxy-2-hydroxypropoxy)-5-chloro-1,2-benzisoxazole]: the “Onset time of convulsions and survival time, in words” value in series [6] (30 mg/kg) is listed as “prolonged onset time of convulsions, survival time significantly”; in series [6] (100 mg/kg) it was “prolonged onset time of convulsions, survival time significantly”. Also, the “Onset time of convulsions” value in series [6] (setting [12]) was 106.5 ± 9.9 min; in series [6] (setting [13]) it was 306.9 ± 17.1 min. Besides, the “Recovery time of righting reflex” value was determined as 7.1 ± 0.9 min in series [6] (setting [12]) and 36.3 ± 16.7 min in series [6] (setting [13]). Also, the Survival rate was found to be 80.0% in series [6] (setting [12]) and 100% in series [6] (setting [13]). Besides, the Survival time in series [6] (setting [12]) was determined as 392.2 ± 21.2 min; in series [6] (setting [13]) it was 420.0 ± 0.0 min; in series [7] (30 mg/kg i.p.), 213.0 ± 27.5 s; in series [7] (100 mg/kg i.p.), 446.7 ± 36.9 s. In addition, in series [6] (100 mg/kg), the “Survival rate of ischemic animals, in words” value is on record as “increased survival rate of ischemic animals”. Besides, the “Duration of the effect” value in series [4] (20 mg/kg p.o.), in series [4] (30 mg/kg p.o.) and in series [4] (100 mg/kg p.o.) was over 90 min throughout. Moreover, the “Onset of the effect” value in series [4] (20 mg/kg p.o.), in series [4] (30 mg/kg p.o.) and in series [4] (100 mg/kg p.o.) was 5 min in each case. Further, in series [4] (Rattus norvegicus, po, 20 mg/kg p.o., read-out: Maximum inhibition), the inhibition in vivo at 20 mg/kg was found to be 60%. In addition, the inhibition in vivo at 30 mg/kg in series [4] (setting [11]) turned out to be 90%. In series [4] (Rattus norvegicus, po, 100 mg/kg p.o., read-out: Maximum inhibition), the inhibition in vivo at 100 mg/kg worked out at 90%.
As to `NC(=O)OCC(O)COc1cc(-c2cccc(Cl)c2)on1` (stereo not shown) [Example 4, 3-(3-Carbamoyloxy-2-hydroxypropoxy)-5-(m-chlorophenyl)isoxazole], the “Onset time of convulsions and survival time, in words” value in series [6] (100 mg/kg) is listed as “prolonged onset time of convulsions, survival time significantly”. In addition, in series [6] (setting [13]), the “Onset time of convulsions” value is 97.6 ± 18.0 min, the “Recovery time of righting reflex” value is 10.1 ± 1.8 min, the Survival rate is listed as 44.4% and the Survival time amounted to 322.4 ± 34.8 min. For the same molecule, the Survival time in series [7] (100 mg/kg i.p.) came to 178.9 ± 15.0 s. In addition, in series [8], the “Onset time of convulsions” value was determined as 233.9 min, the “Recovery time of righting reflex” value is 115.7 min and the Survival time worked out at 344.2 min.
